One experiment deals with A375 cells. Particulars: 12 hours incubation; B content per 10^6 cells; FIG. 4. The protocol: (§1) 0.2 mg/g. 0.4 mg/g. 0.6 mg/g and 0.8 mg/g, added to U87MG, U251, A375, A549, HS683 and Hep cell lines cultured in 25 T petri dishes, respectively, and incubated in a thermostatic incubator for 12 hours. Subsequently, the cells and culture medium were separated, and the number of cells was determined. After digesting the cells with concentrated nitric acid, the B content in the cells was determined by ICP-AES.
(§2) Meanwhile, the BPA was formulated into aqueous solutions of 0.1 mg/g, 0.2 mg/g, 0.4 mg/g, 0.6 mg/g, and 0.8 mg/g, added into U87MG, U251, A375, A549, HS683 and Hep cell lines cultured in 25 T petri dishes, respectively, and incubated in a thermostatic incubator for 12 hours. Subsequently, the cells and culture medium were separated, and the number of cells was determined. After digesting the cells with concentrated nitric acid, the B content in the cells was determined by ICP-AES.
(§3) The […] is 249.772 nm. After determination, the B content contained in every 10^6 cells can be calculated and plotted in FIG. 4.

The subject of another experiment is HS683 cells. Particulars: 12 hours incubation; B content per 10^6 cells; FIG. 4. The protocol: as §1, §2, §3

On to “N-4-carboxyphenylboronic acid amide-arginine-lysine-lysine-lysine-arginine-arginine-glutamine-arginine-arginine-arginine [compound 2]”, for which the “uptake in A375 cells compared with BPA” value in the experiment on A375 cells was “significantly higher than BPA”. In addition, the “uptake in cerebral glioma HS683 cells compared with BPA” value in the experiment on HS683 cells was “significantly higher than BPA”.

Source of the values: US20250152612A1, “POLYPEPTIDE COUPLED BORON CARRYING AGENT, PREPARATION METHOD THEREFOR, AND PHARMACEUTICAL FORMULATION” (Peking University, priority 2021, published 2025).
